Measured values reported in patent publication US20110262555A1, “METHODS AND COMPOSITIONS FOR REDUCING OR PREVENTING VASCULAR CALCIFICATION DURING PERITONEAL DIALYSIS THERAPY” (BAXTER INTERNATIONAL INC., priority 2010, published 2011).
Where two headings read alike, the source gives them in different places.

How the values were obtained:
female rats = conditions: for diaphragmatic inflammation, severity grade / thickness of the diaphragm section involved by inflammation: 7 days intraperitoneal
Experimental: A maximum tolerated dose study was conducted according to the study design in Table 3. Solutions that were administered were made up of a dextrose concentrate or a modified dextrose concentrate and a buffer concentrate or a modified buffer concentrate mixed in a 3:1 ratio (dextrose:buffer). Each test or control article was administered intraperitoneally once daily for 7 consecutive days to each of five different female rats at volumes of 40 mL/kg via a butterfly needle as a bolus injection. Necropsy was performed one day after the last dose.
Tissue samples of the diaphragms from all rats were trimmed, processed, embedded in paraffin, and sectioned. Hematoxylin and eosin stained slides were prepared and examined by light microscopy. Microscopic observations were subjectively graded based on the relative severity of the change: Grade 1=minimal, Grade 2=mild, Grade 3=moderate, grade 4=marked.

[1] = test system: APOe-KO/CRF mouse model of vascular calcification; conditions: for total aortic calcium content, effect on CRF-induced elevation: daily intraperitoneal, 8 weeks
Experimental: Homozygous apolipoprotein E knockout (apoE^−/−) mice were housed in polycarbonate cages in a pathogen-free, temperature-controlled (25° C.) room with a strict 12-hour light/dark cycle and with free access to lab chow and water. All procedures were in accordance with National Institutes of Health (“NIH”) guidelines for the care and use of experimental animals (NIH publication No. 85-23).
A 2-step procedure was used to create CRF in the mice at 10 weeks of age. Briefly, at age of 8 weeks, cortical electrocauterisation was applied to the right kidney through a 2-cm flank incision and contralateral total nephrectomy was performed through a similar incision 2 weeks later. Other mice underwent a 2-step procedure of sham operations with decapsulation of both kidneys with a 14-day distance between the two operations. Blood samples were taken 2 weeks after nephrectomy, and intra-peritoneal catheters were implanted at this time.
At the end of the study, the heart with the aortic root was then separated from ascending aorta. Cryosections of the aortic root tissue were used for quantification of vascular calcification and were used to assess atherosclerotic lesions at the site of the root. The thoracic part of the aorta was stored at −80° C. and used for quantification of calcium content.
Mice having high LDL will develop atherosclerosis. Those with the added partial nephrectomy will develop kidney impairment and were expected to produce marked vascular calcification of the heart and aorta, thus mimicking the disease seen in many dialysis patients. All groups were treated in a manner to mimic a peritoneal dialysis therapy, with a peritoneal dialysis solution either in the absence of PPi (sham and CRF placebo control groups) or containing two different doses of PPi (as outlined above).
Next, a method was employed whereby morphological image processing algorithms were used for the semi-automated measurement of calcification from sections of aorta stained using von Kossa's silver nitrate procedure (FIGS. 3A and 3B). These were acquired at low magnification power on color images. The process was separated into two sequential phases: 1) segmentation to separate the calcification structures and demarcate the region of the atherosclerotic lesion within the tissue, and 2) the quantification. Calcified structures were measured inside and outside the lesion using a granulometric curve that allows the calculation of statistical parameters of size.

| Structure (SMILES) | diaphragmatic inflammation, severity grade (female rats; 600 μM) | thickness of the diaphragm section involved by inflammation (female rats; 600 μM) | diaphragmatic inflammation, severity grade (female rats; 900 μM) | thickness of the diaphragm section involved by inflammation (female rats; 900 μM) | concentration producing chronic inflammation of the peritoneal surface of the diaphragm (local effect) (female rats; intraperitoneal, 7 consecutive days, 40 mL/kg/day, rats) [µM] | total aortic calcium content, effect on CRF-induced elevation ([1]; 30 μM PPi in dialysis solution) | total aortic calcium content, effect on CRF-induced elevation ([1]; 150 μM PPi in dialysis solution) | aortic root calcification inside the atherosclerotic lesion (von Kossa) ([1]; high dose PPi (150 μM)) | aortic root calcification outside the lesion (von Kossa) ([1]; high dose PPi (150 μM)) | aortic root calcification outside the lesion (von Kossa) ([1]; low dose PPi (30 μM)) | inhibition of aortic root calcification inside the atherosclerotic lesion (von Kossa) ([1]; low dose PPi (30 μM)) |
| --- | --- | --- | --- | --- | --- | --- | --- | --- | --- | --- | --- |
| O=P([O-])([O-])OP(=O)(O)O.[Na+].[Na+] [disodium pyrophosphate] | mild (Grade 2) | 5-25% | mild in 1 rat and moderate in 4 of 5 rats | up to 50% | ≥ 600 | – | – | – | – | – | – |
| O=P(O)(O)OP(=O)(O)O [pyrophosphate] | – | – | – | – | – | moderate reduction, that was not statistically significant | completely blocked the effect of CRF on elevation of aortic calcium | completely prevented the elevation due to CRF | totally blocked | totally blocked | approximately 50% |
